Experimental data as given in ChEMBL document CHEMBL4837267, “Development of Potent 3-Br-isoxazoline-Based Antimalarial and Antileishmanial Compounds” (ACS Med Chem Lett, 2021).
Calls of active or inactive are those of the source. The calls are words filed in the database; no cut-off is given here.

Tests used:
Plasmodium falciparum [1] = assay: Antimalarial activity against chloroquine sensitive Plasmodium falciparum D10 infected in human red blood cells assessed as reduction in parasite growth measured after 72 hrs by parasite lactate dehydrogenase assay; assay type: functional, organism-based; conditions: D10, 72 h
Plasmodium falciparum [2] = assay: Antimalarial activity against chloroquine resistant Plasmodium falciparum W2 infected in human red blood cells assessed as reduction in parasite growth measured after 72 hrs by parasite lactate dehydrogenase assay; assay type: functional, organism-based; conditions: W2, 72 h
Leishmania infantum [3] = assay: Antileishmanial activity against Leishmania infantum (MHOM/TN/80/IPTI) promastigotes assessed as reduction in parasite viability at 60 uM measured after 72 hrs by MTT assay; assay type: functional, organism-based; conditions: MHOM/TN/80/IPT
Leishmania tropica [4] = assay: Antileishmanial activity against Leishmania tropica (MHOM/SY/2012/ISS3130) promastigotes assessed as reduction in parasite viability at 60 uM measured after 72 hrs by MTT assay; assay type: functional, organism-based
Leishmania infantum [5] = assay: Antileishmanial activity against Leishmania infantum (MHOM/TN/80/IPTI) promastigotes assessed as reduction in parasite viability measured after 72 hrs by MTT assay; assay type: functional, organism-based; conditions: MHOM/TN/80/IPT
Leishmania tropica [6] = assay: Antileishmanial activity against Leishmania tropica (MHOM/SY/2012/ISS3130) promastigotes assessed as reduction in parasite viability measured after 72 hrs by MTT assay; assay type: functional, organism-based; conditions: MHOM/SY/2012/ISS3130, 72 h
Plasmodium falciparum [7] = assay: Antimalarial activity against chloroquine sensitive Plasmodium falciparum D10 infected in human red blood cells assessed as reduction in parasite growth at 60 uM measured after 72 hrs by parasite lactate dehydrogenase assay; assay type: functional, organism-based
Plasmodium falciparum [8] = assay: Antimalarial activity against chloroquine resistant Plasmodium falciparum W2 infected in human red blood cells assessed as reduction in parasite growth at 60 uM measured after 72 hrs by parasite lactate dehydrogenase assay; assay type: functional, organism-based
BMDM = assay: Cytotoxicity against mouse BMDM cells assessed as reduction in cell viability incubated for 72 hrs by MTT assay; assay type: cell-based
[9] = Selectivity index, ratio of IC50 for antimalarial activity against chloroquine sensitive Plasmodium falciparum D10 infected in human red blood cells to IC50 for cytotoxicity against mouse BMDM cells; assay type: toxicity, cell-based; conditions: read-out: Selectivity Index
[10] = Selectivity index, ratio of IC50 for antimalarial activity against chloroquine resistance Plasmodium falciparum W2 infected in human red blood cells to IC50 for Cytotoxicity against mouse BMDM cells; assay type: toxicity, cell-based; conditions: read-out: Selectivity Index
[11] = Selectivity index, ratio of IC50 for antileishmanial activity against Leishmania infantum (MHOM/TN/80/IPTI) promastigotes to IC50 for Cytotoxicity against mouse BMDM cells; assay type: toxicity, cell-based; conditions: read-out: Selectivity Index
[12] = Selectivity index, ratio of IC50 for antileishmanial activity against Leishmania tropica (MHOM/SY/2012/ISS3130) promastigotes to IC50 for Cytotoxicity against mouse BMDM cells; assay type: toxicity, cell-based; conditions: read-out: Selectivity Index
Plasmodium falciparum [13] = assay: Antimalarial activity against […] late stage (IV-V) Plasmodium falciparum 3D7 gametocytes expressing CBG99 luciferase infected in human red blood cells assessed as reduction in gametocyte viability measured after 72 hrs by luminescence based assay; assay type: functional, organism-based; conditions: 3D7, 72 h

SMILES	IC50 (Plasmodium falciparum [1]) [µM]	IC50 (Plasmodium falciparum [2]) [µM]	IC50 (Leishmania infantum [5]) [µM]	IC50 (Leishmania tropica [6]) [µM]	further results
O=C(O)c1ccc(-c2noc(C3CC(Br)=NO3)n2)s1 (stereo not given)	45.9	40.4			inhibition (Leishmania infantum [3]): inactive; inhibition (Leishmania tropica [4]): inactive
Nc1ccc(-c2noc(C3CC(Br)=NO3)n2)cc1 (stereo not given)	45.7	39.5	28.8	33.8	
BrC1=NOC(c2nc(-c3ccc4ccccc4c3)no2)C1 (stereo not given)	27.8	27.2	10.5	5.3	
BrC1=NOC(c2nc(-c3ccccc3)no2)C1 (stereo not given)	52.7	64.8	17.3	43	
C[C@@H]1[C@H](O)[C@@H](C)/C=C/C=C/C=C/C=C/C=C/C=C/C=C/[C@H](O[C@@H]2O[C@H](C)[C@@H](O)[C@H](N)[C@@H]2O)C[C@@H]2O[C@](O)(C[C@@H](O)C[C@@H](O)[C@H](O)CC[C@@H](O)C[C@@H](O)CC(=O)O[C@H]1C)C[C@H](O)[C@H]2C(=O)O [AMPHOTERICIN B]			0.11		
BrC1=NOC(c2nc(-c3ccsc3)no2)C1 (stereo not given)	58.3	48.1	27.3	32.6	
BrC1=NOC(c2nc(-c3cccs3)no2)C1 (stereo not given)	52.7	46	26.2	24.9	
N[C@H](c1nc(-c2ccccc2)no1)[C@@H]1CC(Br)=NO1					inhibition (Plasmodium falciparum [7]): inactive; inhibition (Plasmodium falciparum [8]): inactive
BrC1=NOC(c2nc(-c3ccccc3)cs2)C1 (stereo not given)	45.8	39.7	28.8	33.8	
CC(C)(C)c1ccc(-c2noc(C3CC(Br)=NO3)n2)cc1 (stereo not given)	3.1	3.5	0.29	0.31	IC50 (BMDM): 37.3 µM; selectivity ratio [9]: 12; selectivity ratio [10]: 11; selectivity ratio [11]: 129; selectivity ratio [12]: 120
O=C(O)c1ccc(-c2noc(C3CC(Br)=NO3)n2)cc1 (stereo not given)	36.9	45.3			inhibition (Leishmania infantum [3]): inactive; inhibition (Leishmania tropica [4]): inactive
FC(F)(F)c1ccc(-c2noc(C3CC(Br)=NO3)n2)cc1 (stereo not given)	31	34	8.7	6.9	
BrC1=NOC(c2nnc(-c3ccccc3)s2)C1 (stereo not given)	22.9	41.3	60.3		inhibition (Leishmania tropica [4]): inactive
CC(C)(C)c1ccc(-c2nnc(C3CC(Br)=NO3)o2)cc1 (stereo not given)	0.035	0.058	3.5	7.5	IC50 (Plasmodium falciparum [13]): 10.4 µM; IC50 (BMDM): 40 µM; selectivity ratio [9]: 1140; selectivity ratio [10]: 690; selectivity ratio [11]: 11; selectivity ratio [12]: 5
BrC1=NOC(c2nc(-c3ccc4c(c3)OCCO4)no2)C1 (stereo not given)	29.8	32.7	25.6	39.4	
COc1ccc(-c2noc(C3CC(Br)=NO3)n2)cc1 (stereo not given)	34.4	42.5	12	14.7	
Oc1ccc(-c2noc(C3CC(Br)=NO3)n2)cc1 (stereo not given)	39	32.5	14.7	25.6	
BrC1=NOC(c2nnc(-c3ccccc3)o2)C1 (stereo not given)	16.7	15.1			inhibition (Leishmania infantum [3]): inactive; inhibition (Leishmania tropica [4]): inactive
BrC1=NOC(c2nc(-c3ccccc3)n[nH]2)C1 (stereo not given)	35.3	43			inhibition (Leishmania infantum [3]): inactive; inhibition (Leishmania tropica [4]): inactive
BrC1=NOC(c2ncc(-c3ccccc3)o2)C1 (stereo not given)	32.2	39.3		50.7	inhibition (Leishmania infantum [3]): inactive
Fc1ccc(-c2noc(C3CC(Br)=NO3)n2)cc1 (stereo not given)			9	10.9	inhibition (Plasmodium falciparum [7]): inactive; inhibition (Plasmodium falciparum [8]): inactive
